# Results as given in ChEMBL document CHEMBL1158876, “New acylated sulfoglycolipids and digalactolipids and related known glycolipids from cyanobacteria with a potential to inhibit the reverse transcriptase of HIV-1” (J Nat Prod, 1997).
# Biological target: Gag-Pol polyprotein (Human immunodeficiency virus type 1 group M subtype B (isolate BH10)(HIV-1)) (UniProt P03366)
# Assay: Inhibition of RNA dependent DNA polymerase activity of HIV1 BH10 recombinant reverse transcriptase p66/p51 expressed in Escherichia coli at 10 uM
# Conditions: Human immunodeficiency virus 1
row,inhibition [%],SMILES
1,100,CCCCCCCCCCCCCCCC(=O)OC[C@H](CO[C@H]1O[C@H](CS(=O)(=O)O)[C@@H](O)[C@H](O)[C@H]1O)OC(=O)CCCCCCCCCCCCCCC
2,100,CCCCCCCC/C=C\CCCCCCCC(=O)OC[C@H](CO[C@H]1O[C@H](CS(=O)(=O)O)[C@@H](O)[C@H](O)[C@H]1O)OC(=O)CCCCCCCCCCCCCCC
3,100,CCCCC/C=C\C/C=C\CCCCCCCC(=O)OC[C@H](CO[C@H]1O[C@H](CS(=O)(=O)O)[C@@H](O)[C@H](OC(=O)CCCCCCCCCCCCCCC)[C@H]1OC(=O)CCCCCCCCCCCCCCC)OC(=O)CCCCCCCCCCCCCCC
4,65,"CCCCC/C=C\C/C=C\CCCCCCCC(=O)OC[C@H](CO[C@@H]1O[C@H](CO)[C@H](O)[C@H](O)C1O)OC(=O)CCCCCCCCCCCCCCC (single isomer, unassigned)"
5,8,"CCCCCCCCCCCCCCCC(=O)OC[C@H](CO[C@@H]1O[C@H](CO)[C@H](O)[C@H](O)C1O)OC(=O)CCCCCCCCCCCCCCC (single isomer, unassigned)"
6,42,CCCCC/C=C\C/C=C\CCCCCCCC(=O)OC[C@H](CO[C@@H]1O[C@H](CO[C@H]2O[C@H](CO)[C@H](O)[C@H](OC(=O)CCCCCCCCCCCCCCC)[C@H]2O)[C@H](O)[C@H](O)[C@H]1O)OC(=O)CCCCCCCCCCCCCCC
7,100,CCCCC/C=C\C/C=C\CCCCCCCC(=O)OC[C@H](CO[C@H]1O[C@H](CS(=O)(=O)O)[C@@H](O)[C@H](O)[C@H]1O)OC(=O)CCCCCCCCCCCCCCC

row,SMILES,inhibition [%]
1,"CCCCCCCC/C=C\CCCCCCCC(=O)OC[C@H](CO[C@@H]1O[C@H](CO)[C@H](O)[C@H](O)C1O)OC(=O)CCCCCCCCCCCCCCC (single isomer, unassigned)",33
